Results taken from patent US20090105305A1, “Therapeutic Agents - 550” (AstraZeneca AB, priority 2006, published 2009).

Target: T1, human Fatty Acid Synthase (Homo sapiens, UniProt P49327)
T1 construct: made in house
Experiment: Human FAS enzyme assay (decrease in NADPH fluorescence)
Type: biochemical
Details: % inhibition at a concentration of 100 micromolar
Procedure, shortened: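 In-house human FAS (0.4 μg) was preincubated 15 min at RT with compound and NADPH (added at 166.6 μM) in 0.1 M Tris pH 7.5, 1 mM glutathione, 0.05% BSA. Malonyl-/acetyl-CoA (500/150 μM in substrate mix) was then added for 60 min. Readout was NADPH fluorescence loss (ex 340/em 460) over a time-zero read, with IC50 from a sigmoid fit.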

T1 sequence (P49327 whole entry): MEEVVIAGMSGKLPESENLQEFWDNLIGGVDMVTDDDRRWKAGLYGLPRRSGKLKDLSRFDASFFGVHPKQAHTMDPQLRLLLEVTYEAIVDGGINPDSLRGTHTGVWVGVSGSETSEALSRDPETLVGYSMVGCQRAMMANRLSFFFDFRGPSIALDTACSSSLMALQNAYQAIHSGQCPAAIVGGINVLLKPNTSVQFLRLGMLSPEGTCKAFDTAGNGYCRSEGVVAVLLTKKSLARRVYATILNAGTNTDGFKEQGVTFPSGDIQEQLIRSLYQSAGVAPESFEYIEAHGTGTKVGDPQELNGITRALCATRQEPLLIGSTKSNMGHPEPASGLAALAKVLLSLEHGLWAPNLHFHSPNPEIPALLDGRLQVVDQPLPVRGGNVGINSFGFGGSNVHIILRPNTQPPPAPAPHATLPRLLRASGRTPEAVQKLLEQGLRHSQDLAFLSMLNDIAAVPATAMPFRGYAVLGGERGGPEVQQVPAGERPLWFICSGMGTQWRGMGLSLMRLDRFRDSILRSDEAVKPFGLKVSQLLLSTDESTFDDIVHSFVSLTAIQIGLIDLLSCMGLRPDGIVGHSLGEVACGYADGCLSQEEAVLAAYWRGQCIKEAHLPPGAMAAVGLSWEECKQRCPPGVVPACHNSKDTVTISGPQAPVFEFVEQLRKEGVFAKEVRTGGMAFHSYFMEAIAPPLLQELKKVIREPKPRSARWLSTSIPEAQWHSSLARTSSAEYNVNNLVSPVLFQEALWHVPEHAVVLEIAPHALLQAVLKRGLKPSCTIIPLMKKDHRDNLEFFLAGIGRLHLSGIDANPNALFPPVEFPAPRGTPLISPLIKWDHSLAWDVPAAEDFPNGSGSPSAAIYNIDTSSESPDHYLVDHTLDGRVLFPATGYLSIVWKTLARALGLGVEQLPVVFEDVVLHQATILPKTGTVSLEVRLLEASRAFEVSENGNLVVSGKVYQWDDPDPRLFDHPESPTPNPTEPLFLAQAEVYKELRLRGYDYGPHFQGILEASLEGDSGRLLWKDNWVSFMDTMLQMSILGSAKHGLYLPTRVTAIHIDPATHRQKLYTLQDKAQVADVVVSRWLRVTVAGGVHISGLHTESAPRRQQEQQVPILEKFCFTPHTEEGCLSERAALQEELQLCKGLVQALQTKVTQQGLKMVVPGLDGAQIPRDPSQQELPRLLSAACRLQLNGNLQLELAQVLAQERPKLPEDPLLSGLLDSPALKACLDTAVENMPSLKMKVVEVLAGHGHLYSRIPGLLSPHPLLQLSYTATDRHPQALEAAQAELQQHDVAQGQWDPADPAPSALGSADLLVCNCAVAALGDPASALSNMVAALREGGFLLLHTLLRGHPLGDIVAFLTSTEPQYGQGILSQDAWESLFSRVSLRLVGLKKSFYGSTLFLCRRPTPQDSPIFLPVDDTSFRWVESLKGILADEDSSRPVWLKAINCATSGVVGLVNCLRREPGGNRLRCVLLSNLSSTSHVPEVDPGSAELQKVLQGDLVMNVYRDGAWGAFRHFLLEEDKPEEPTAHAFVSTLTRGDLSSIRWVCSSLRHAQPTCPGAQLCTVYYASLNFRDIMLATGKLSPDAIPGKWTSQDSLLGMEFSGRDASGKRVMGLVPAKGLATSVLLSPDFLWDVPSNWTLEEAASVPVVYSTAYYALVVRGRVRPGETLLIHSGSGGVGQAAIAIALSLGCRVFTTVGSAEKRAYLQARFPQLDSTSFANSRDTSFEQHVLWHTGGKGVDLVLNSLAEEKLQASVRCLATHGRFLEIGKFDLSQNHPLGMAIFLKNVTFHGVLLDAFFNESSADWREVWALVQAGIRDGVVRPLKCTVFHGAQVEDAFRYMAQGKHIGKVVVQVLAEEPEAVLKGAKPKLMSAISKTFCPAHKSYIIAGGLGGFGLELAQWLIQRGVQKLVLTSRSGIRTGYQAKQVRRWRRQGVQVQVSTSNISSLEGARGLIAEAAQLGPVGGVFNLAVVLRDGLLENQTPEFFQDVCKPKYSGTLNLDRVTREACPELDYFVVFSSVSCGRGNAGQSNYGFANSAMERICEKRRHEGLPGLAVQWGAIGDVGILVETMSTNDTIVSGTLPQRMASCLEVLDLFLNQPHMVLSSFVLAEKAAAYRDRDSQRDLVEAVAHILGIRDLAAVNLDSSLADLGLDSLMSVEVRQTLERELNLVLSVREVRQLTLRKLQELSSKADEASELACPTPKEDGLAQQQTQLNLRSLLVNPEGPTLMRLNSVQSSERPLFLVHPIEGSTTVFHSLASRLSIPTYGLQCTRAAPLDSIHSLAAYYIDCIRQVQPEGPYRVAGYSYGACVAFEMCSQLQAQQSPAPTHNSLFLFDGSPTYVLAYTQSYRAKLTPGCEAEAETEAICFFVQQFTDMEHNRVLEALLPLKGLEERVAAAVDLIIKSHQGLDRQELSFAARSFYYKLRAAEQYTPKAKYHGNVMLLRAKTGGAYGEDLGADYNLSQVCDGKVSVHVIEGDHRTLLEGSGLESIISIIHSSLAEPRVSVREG

Row | inhibition at 100 µM | Compound
1 | 97% | Cc1ccc(C(=O)N2CCC(c3ccc(C#N)cc3)CC2)cc1NS(=O)(=O)c1cnn(C)c1 [Example 145, N-[5-[4-(4-cyanophenyl)piperidine-1-carbonyl]-2-methyl-phenyl]-1-methyl-pyrazole-4-sulfonamide]
2 | 90% | C=CCS(=O)(=O)Nc1cc(C(=O)N2CCC(c3ccc(C#N)cc3)CC2)ccc1C [Example 146, N-(5-(4-(4-cyanophenyl)piperidine-1-carbonyl)-2-methylphenyl)prop-2-ene-1-sulfonamide]
3 | 100% | CCC1(CS(=O)(=O)Nc2cc(C(=O)N3CCC(c4ccc(C#N)cc4)CC3)ccc2C)NC(=O)NC1=O (centres unmarked) [Example 148, N-[5-[4-(4-cyanophenyl)piperidine-1-carbonyl]-2-methyl-phenyl]-1-(4-ethyl-2,5-dioxo-imidazolidin-4-yl)methanesulfonamide]
4 | 85% | Cc1ccc(C(=O)N2CCC(c3ccc(C#N)cc3)CC2)cc1NS(=O)(=O)c1c(C)noc1C [Example 149, N-[5-[4-(4-cyanophenyl)piperidine-1-carbonyl]-2-methyl-phenyl]-3,5-dimethyl-1,2-oxazole-4-sulfonamide]
5 | 88% | Cc1ccc(C(=O)N2CCC(c3ccc(C#N)cc3)CC2)cc1NS(=O)(=O)CC(O)CN(C)C (centres unmarked) [Example 150, N-[5-[4-(4-cyanophenyl)piperidine-1-carbonyl]-2-methyl-phenyl]-3-dimethylamino-2-hydroxy-propane-1-sulfonamide]
6 | 81% | Cc1ccc(C(=O)N2CCC(c3ccc(C#N)cc3)CC2)cc1NS(=O)(=O)CCC(=O)O [Example 151, 3-[[5-[4-(4-cyanophenyl)piperidine-1-carbonyl]-2-methyl-phenyl]sulfamoyl]propanoic acid]
7 | 87% | Cc1ccc(C(=O)N2CCC(c3ccc(C#N)cc3)CC2)cc1NS(=O)(=O)c1c(C)nn(C)c1C [Example 152, N-[5-[4-(4-cyanophenyl)piperidine-1-carbonyl]-2-methyl-phenyl]-1,3,5-trimethyl-pyrazole-4-sulfonamide]
8 | 97% | CC(=O)N1CCC(S(=O)(=O)Nc2cc(C(=O)N3CCC(c4ccc(C#N)cc4)CC3)ccc2C)C1 (centres unmarked) [Example 153, 1-acetyl-N-[5-[4-(4-cyanophenyl)piperidine-1-carbonyl]-2-methyl-phenyl]pyrrolidine-3-sulfonamide]
9 | 99% | Cc1ccc(C(=O)N2CCC(c3ccc(C#N)cc3)CC2)cc1NS(=O)(=O)C1CCN(S(C)(=O)=O)C1 (centres unmarked) [Example 154, N-[5-[4-(4-cyanophenyl)piperidine-1-carbonyl]-2-methyl-phenyl]-1-methylsulfonyl-pyrrolidine-3-sulfonamide]
10 | 84% | Cc1ccc(C(=O)N2CCC(c3ccc(Cl)cc3)CC2)cc1NS(C)(=O)=O [Example 155, N-[5-[4-(4-chlorophenyl)piperidine-1-carbonyl]-2-methyl-phenyl]methanesulfonamide]
11 | 74% | CNC(=O)c1ccc(C2CCN(C(=O)c3ccc(C)c(NS(C)(=O)=O)c3)CC2)cc1 [Example 156, 4-[1-(3-methanesulfonamido-4-methyl-benzoyl)-4-piperidyl]-N-methyl-benzamide]
12 | 78% | Cc1ccc(C(=O)N2CCC(c3ccc(C(F)(F)F)cc3)CC2)cc1NS(C)(=O)=O [Example 157, N-[2-methyl-5-[4-[4-(trifluoromethyl)phenyl]piperidine-1-carbonyl]phenyl]methanesulfonamide]
13 | 81% | Cc1ccc(C2CCN(C(=O)c3ccc(C)c(NS(C)(=O)=O)c3)CC2)cc1 [Example 158, N-[2-methyl-5-[4-(4-methylphenyl)piperidine-1-carbonyl]phenyl]methanesulfonamide]
14 | 80% | CSc1ccc(C(=O)N2CCC(c3ccc(C#N)cc3)CC2)cc1NS(C)(=O)=O [Example 159, N-[5-[4-(4-cyanophenyl)piperidine-1-carbonyl]-2-methylsulfanylphenyl]methanesulfonamide]
15 | 89% | CSc1ccc(C(=O)N2CCC(c3ccc(C#N)cc3)CC2)cc1NS(=O)(=O)Cc1ccccc1 [Example 160, N-[5-[4-(4-cyanophenyl)piperidine-1-carbonyl]-2-methylsulfanylphenyl]-1-phenylmethanesulfonamide]
16 | 80% | COCc1ccc(C(=O)N2CCC(c3ccc(C#N)cc3)CC2)cc1NS(C)(=O)=O [Example 161, N-[5-[4-(4-cyanophenyl)piperidine-1-carbonyl]-2-(methoxymethyl)phenyl]methanesulfonamide]
17 | 86% | COc1ccc(C2CCN(C(=O)c3ccc(C)c(NS(C)(=O)=O)c3)CC2)cc1 [Example 162, N-[5-[4-(4-methoxyphenyl)piperidine-1-carbonyl]-2-methylphenyl]methanesulfonamide]
18 | 85% | Cc1ccc(C(=O)N2CCC(c3ccc(CNS(C)(=O)=O)cc3)CC2)cc1NS(C)(=O)=O [Example 163, N-[[4-[1-(3-methanesulfonamido-4-methylbenzoyl)piperidin-4-yl]phenyl]methyl]methanesulfonamide]
19 | 83% | CC(=O)NCc1ccc(C2CCN(C(=O)c3ccc(C)c(NS(C)(=O)=O)c3)CC2)cc1 [Example 164, N-[[4-[1-(3-methanesulfonamido-4-methylbenzoyl)piperidin-4-yl]phenyl]methyl]acetamide]
20 | 76% | Cc1ccc(C(=O)N2CCC(c3ccc(CO)cc3)CC2)cc1NS(C)(=O)=O [Example 165, N-[5-[4-[4-(hydroxymethyl)phenyl]piperidine-1-carbonyl]-2-methylphenyl]methanesulfonamide]
21 | 96% | CCS(=O)(=O)Nc1cc(C(=O)N2CCC(c3ccc(C#N)cc3)CC2)c(C)cc1C [Example 166, N-[5-[4-(4-cyanophenyl)piperidine-1-carbonyl]-2,4-dimethylphenyl]ethanesulfonamide]
22 | 87% | Cc1nc(-c2ccc(C3CCN(C(=O)c4ccc(C)c(NS(C)(=O)=O)c4)CC3)cc2)no1 [Example 167, N-[2-methyl-5-[4-[4-(5-methyl-1,2,4-oxadiazol-3-yl)phenyl]piperidine-1-carbonyl]phenyl]methanesulfonamide]
23 | 75% | Cc1ccc(C(=O)N2CCC(c3ccc(-c4nnco4)cc3)CC2)cc1NS(C)(=O)=O [Example 168, N-[2-methyl-5-[4-[4-(1,3,4-oxadiazol-2-yl)phenyl]piperidine-1-carbonyl]phenyl]methanesulfonamide]
24 | 90% | Cc1ccc(C(=O)N2CCC(c3ccc(Br)cc3)CC2)cc1NS(C)(=O)=O [Example 169, N-[5-[4-(4-bromophenyl)piperidine-1-carbonyl]-2-methylphenyl]methanesulfonamide]
25 | 74% | Cc1ccc(C(=O)N2CCC(c3ccc(-c4nccs4)cc3)CC2)cc1NS(C)(=O)=O [Example 170, N-[2-methyl-5-[4-[4-(1,3-thiazol-2-yl)phenyl]piperidine-1-carbonyl]phenyl]methanesulfonamide]
26 | 85% | Cc1ccc(C(=O)N2CCC(c3ccc(-c4ncon4)cc3)CC2)cc1NS(C)(=O)=O [Example 171, N-[2-methyl-5-[4-[4-(1,2,4-oxadiazol-3-yl)phenyl]piperidine-1-carbonyl]phenyl]methanesulfonamide]
